Laboratory results: patent US20170027896A1, “METHODS AND COMPOSITIONS FOR THE TREATMENT OF VASCULAR MALFORMATION” (IFOM - FONDAZIONE ISTITUTO FIRC DI ONCOLOGIA MOLECOLARE, priority 2014, published 2017)
“Also recorded” adds a separate entry of the source. Where two headings read alike, the source gives them in different places.

Tests used:
[1] = system: CCM3-ECKO mice; assay: Bleeding and mortality in drug-treated CCM3-ECKO mice; details: mouse, in vivo
Protocol: Sulindac sulfide (Sigma) and sulindac sulfone (Sigma) were both dissolved in DMSO and further diluted 1:50 in corn oil. They were administered intragastrically, daily (30 mg/kg body weight), starting one day after the induction of recombination. The control mice were treated in parallel with vehicle only (corn oil plus 2% DMSO).

[2] = system: CCM1 KO endothelial cells; assay: Endothelial cell-to-cell contacts in CCM1 KO endothelial cells in culture; assay type: cell-based, mouse
[3] = system: platelets; details: cited from earlier work
[4] = system: CCM3-knockout endothelial cell line; assay: rtPCR of b-catenin target gene and progenitor/EndMT markers in CCM3-knockout endothelial cell line; assay type: cell-based, mouse; details: 48 h; 135 mM sulindac sulfide, 125 mM sulindac sulfone, 200 mM silibinin, 250 mM salinomycin
Protocol: (§1) In some experiments, endothelial cell lines from the lungs of CCM3-flox/flox mice (8-10 weeks old) were immortalized in culture through retroviral expression of polyoma middle T gene^60. […] These cells were then maintained in culture for up to 25 passages without detectable changes in the effects of this CCM3 ablation.
(§2) Drugs were added to confluent cells for 48 h before the indicated assays. The final concentrations used were: […] (all from Sigma-Aldrich). As all of these were dissolved in DMSO, control treatment (vehicle) was 0.1% DMSO final concentration, as for drug treatment.
(§3) RNA extraction was performed with RNeasy kits (74106; […]). The RNA (1 μg) was reverse transcribed with random hexamers (High Capacity cDNA Archive kits; Applied Biosystems). The cDNA was amplified with TaqMan gene expression assays (Applied Biosystems) using a 7900 HT thermocycler (ABI/Prism). For each sample, the expression levels were determined with the comparative threshold cycle (Ct) method, and normalized to the housekeeping genes encoding 18S and glyceraldehyde-3-phosphate dehydrogenase (GAPDH). For amplification, the following probes (Applied Biosystems) that have been validated to recognize the mouse transcripts in rtPCR were used: Axin2, Nkd1, Lef1, ccnd1, cMyc-Klf4, Ly6a, S100a4, Id1, Cdh2, Acta2, CD44. The probes to identify the CCM3 mRNA transcript were custom designed, as: forward, […] (SEQ ID No. 12); reverse, GCTCTGGCCGCTCAATCA (SEQ ID No. 13); reporter sequence, […] (SEQ ID No. 14).

[5] = system: CCM3-knockout endothelial cell line; assay: Immunostaining of CCM3-knockout endothelial cell line; assay type: cell-based, mouse; details: 48 h
Protocol: as §1, §2
Cells cultured in vitro were fixed and stained as described previously^46.
(§4) The following antibodies were used: anti-Pecam (hamster; MAB1398Z, Millipore); anti-b-galactosidase (chicken; ab9361, Abcam); anti-VE-cadherin (rat monoclonal; 550548, BD Biosciences); anti-VE-cadherin (goat; sc-6458, Santa Cruz); anti-active-b-catenin (mouse monoclonal clone 8E7) dephosphorylated on Ser37 and Thr41, Millipore); anti-total-b-catenin (mouse monoclonal; Cell Signaling); anti-S100a4 (rabbit; 07-2274, Millipore); anti-Klf4 (goat; AF3158, R&D); anti-CD44 (rat; 553131, BD Biosciences); anti-ID1 (rabbit; sc-488, Santa Cruz); anti-aSMA (mouse monoclonal; F3777, Sigma); anti-GFP (rabbit; A-6455, Invitrogen); anti-podocalyxin (goat; AF1556, R&D); anti-phospho-histone H3 (rabbit; ab51776, Millipore); anti-CCM3 (rabbit; Eurogentec); anti-p-Smad1 (rabbit; 9516, Cell Signaling); anti-endomucin (rabbit; sc-65495, Santa Cruz); anti-α-tubulin (mouse monoclonal; T9026, Sigma).

[6] = system: cavernoma lesions in the brain of CCM1-ECKO mice; assay: Cavernoma lesions in the brain of CCM1-ECKO mice; assay type: in vivo, mouse
Excerpt: (§5) CCM1-ECKO and CCM2-ECKO have been obtained from CCM1-flox/flox and CCM2-flox/flox mice as described in details above for CCM3-ECKO mice, see also Maddaluno et al, 2013 and Boulday et al, 2011.

[7] = system: cyclooxygenase; details: reported; cited from earlier work
[8] = system: vascular lesions in the brain of CCM3-ECKO mice; assay: Assessment of lesion burden in brains of CCM3-ECKO mice; assay type: in vivo, mouse; details: CCM3-ECKO pups dpn 9; 30 mg/kg intragastrically daily; controls 166.8±22 (sulfide study), 153.5±28 (sulfone study)
Excerpt: (§6) The CCM3-flox/flox mice were generated at TaconicArtemis (Koeln, Germany). Two P-lox sequences were inserted that flank exons 4 and 5 of the murine CCM3 gene, to produce a loss-of-function mutation after excision by Ore recombinase. These CCM3-flox/flox mice were bred with Cdh5(PAC)-CreERT2 mice (Wang et al, 2010) for tamoxifen-inducible endothelial-cell-specific expression of Ore-recombinase and CCM3 gene recombination. The CCM3-flox/flox-Cdh5(PAC)-CreERT2 mice were further bred with BAT-gal mice (Maretto et al, 2003) to monitor the activation of b-catenin transcription signaling, and with Rosa 26-Enhanced […] Fluorescent Protein (EYFP) (Rosa26EYFP) mice (Srinivas et al, 2001) to monitor the expression of Ore-recombinase through the expression of EYFP. Tamoxifen (Sigma) was dissolved in corn oil and 10% ethanol (at 10 mg/ml), and then diluted 1:5 in corn oil before single intragastric administration to dpn 1-2 pups (35 mg/kg body weight), as described in^14. The control (wild-type) mice included CCM3-flox/flox-Cdh5(PAC)-CreERT2-BAT-gal mice treated with the vehicle used to dissolve the tamoxifen (corn oil plus 2% ethanol), and CCM3^+/+-Cdh5(PAC)-CreERT2-BAT-gal mice treated with tamoxifen.
(§7) Brains and eyes from mice pups were fixed in 3% paraformaldehyde immediately after dissection, and this fixing was continued overnight at 4° C. The retinas were dissected from the eyes just before staining as the whole mount. Fixed brains were embedded in 4% low-melting-point agarose and sectioned along the sagittal axis ([…]) using a vibratome (1000 Plus, The Vibratome Company, St. Louis, Mo., US).
For the classification and counting of lesions, entire brains from dpn 9 littermate pups were sectioned and immunostained for Pecam as described above and in the Methods. Sections were then examined under wide-field fluorescence microscopy (10× and 20×). Lesions were classified as described in^63 as mulberry (multiple cavernae, group of more than two contiguous cavernae), single caverna (single dilated vessel with maximal diameter accommodating more than 25 red blood cells), or telangiectases, tortuous small vessels with abnormally dilated lumen). The total numbers of lesions were calculated by summing all of the types of lesions.
As the sections were […], a correction was applied to the number of mulberry lesions, which can span two sections. Therefore, the number of mulberry lesions was divided by […]. The lesions were counted and classified independently by two observers who were blinded to the treatments.
The maximal diameter of the mulberry lesions and single cavernae was used for statistical comparison.

[9] = system: b-catenin transcription activity in brain endothelial cells of CCM3-ECKO mice; assay: Immunostaining of brain sections of CCM3-ECKO mice (b-gal reporter, progenitor/EndMT markers, VE-cadherin); assay type: in vivo, mouse; details: CCM3-ECKO pups, dpn 9
Excerpt: as §6, §7
Brain sections and retinas were stained as floating samples in 12-well and 96-well plates, respectively. They were blocked overnight at 4° C. in 1% fish-skin gelatin with 0.5% Triton X100 and 5% donkey serum in phosphate-buffered saline (PBS) containing 0.01% thimerosal. The samples were incubated overnight at 4° C. with the primary antibodies diluted in 1% fish-skin gelatin with 0.25% Triton X100 in PBS containing 0.01% thimerosal. Following washing with 0.1% Triton X100 in PBS, the secondary antibodies were added for 4 h at room temperature in 1% fish-skin gelatin with 0.25% Triton X100 in PBS containing 0.01% thimerosal. The incubation with DAPI was in PBS for 4 h, which was followed by several washes in PBS, post-fixating with 3% paraformaldehyde for 5 min at room temperature, and further washes in PBS. The brain sections were mounted in Vectashield with DAPI, and the coverslips fixed with nail varnish; the retinas were mounted in Prolong gold with DAPI.
as §4

[10] = system: CCM1 KO endothelial cells; assay: Expression of EndMT markers in CCM1 KO endothelial cells in culture; assay type: cell-based, mouse
Protocol: as §5, §3

Compound: CC1=C(CC(=O)O)c2cc(F)ccc2/C1=C\c1ccc(S(C)(=O)=O)cc1 [sulindac sulfone, (Z)-5-Fluoro-2-methyl-1-[4-(methylsulfonyl)benzylidene]indene-3-acetic acid]
- bleeding from vascular lesions or mortality versus vehicle-treated mice [1]: did not observe either increased bleeding from vascular lesions or mortality
- organization of endothelial cell-to-cell contacts [2]: induces re-organization
- anti-platelet activity [3]: lacks anti-platelet activity
- inhibition of transcription of Axin2, Klf4 and S100a4 (rtPCR) [4]: greatest inhibition; also recorded: most effective
- nuclear accumulation of active b-catenin / distribution to adherens junctions [5]: inhibited; also recorded: reduced
- overexpression of progenitor/EndMT marker proteins (Klf4, S100a4, Id1, CD44) [5]: strongly reduced; also recorded: inhibited
- formation of cavernoma lesions in the brain [6]: inhibits
- anti-cyclooxygenase activity [7]: devoid of anti-cyclooxygenase activity
- mean number (±SD) of vascular lesions per brain [8]: 68.6±10
- VE-cadherin localization at endothelial cell-cell junctions in brain vessels [9]: restored its localization to cell-cell junctions
- expression of b-catenin target genes / progenitor and EndMT markers (Klf4, S100a4, Id1) in brain endothelium ([9]; immunostaining): reduced this nuclear reactivity; also recorded: inhibited
- expression of EndMT markers [10]: inhibits
- expression of EndMT markers ([10]; listed as exisulind): inhibition
